Measured values as given in article PMC2688486, “Xylose reductase from Pichia stipitis with altered coenzyme preference improves ethanolic xylose fermentation by recombinant Saccharomyces cerevisiae” (Biotechnology for Biofuels, 2009).

What was measured:
[1] = biological target: T1, P. stipitis XR (xylose reductase, XYL1) (Scheffersomyces stipitis, UniProt P31867); assay: NAD(P)H absorbance at […] nm, initial rates fitted to compulsory-order ternary-complex equation; format: biochemical; conditions: crude extract, xylose co-substrate varied, pH 7.0 triethanolamine, 30°C; kinetic dissociation constant; read-out: KiA
T1 construct: native full-length XYL1 from plasmid pY7, chromosomally integrated in S. cerevisiae TMB 3044 (gre3 deleted); crude cell extract

[2] = biological target: T2, P. stipitis XR (xylose reductase, XYL1) (Scheffersomyces stipitis, UniProt P31867, K270R); assay: as above; format: biochemical; conditions: crude extract, xylose co-substrate varied, pH 7.0 triethanolamine, 30°C; kinetic dissociation constant; read-out: KiA
T2 construct: native full-length XYL1 from plasmid pY7, chromosomally integrated in S. cerevisiae TMB 3044 (gre3 deleted); crude cell extract

[3] = biological target: T3, P. stipitis XR (xylose reductase, XYL1) (Scheffersomyces stipitis, UniProt P31867, K270M); assay: as above; format: biochemical; conditions: crude extract, xylose co-substrate varied, pH 7.0 triethanolamine, 30°C; kinetic dissociation constant; read-out: KiA
T3 construct: native full-length XYL1 from plasmid pY7, chromosomally integrated in S. cerevisiae TMB 3044 (gre3 deleted); crude cell extract

[4] = substrate: NC(=O)C1=CN([C@@H]2O[C@H](COP(=O)(O)OP(=O)(O)OC[C@H]3O[C@@H](n4cnc5c(N)ncnc54)[C@H](O)[C@@H]3O)[C@@H](O)[C@H]2O)C=CC1; assay: cells, lysate or membranes; format: biochemical, Scheffersomyces stipitis; conditions: crude extract, xylose co-substrate varied, pH 7.0 triethanolamine, 30°C, varied: cofactor
[5] = substrate: NC(=O)C1=CN([C@@H]2O[C@H](COP(=O)(O)OP(=O)(O)OC[C@H]3O[C@@H](n4cnc5c(N)ncnc54)[C@H](OP(=O)(O)O)[C@@H]3O)[C@@H](O)[C@H]2O)C=CC1; assay: cells, lysate or membranes; format: biochemical, Scheffersomyces stipitis; conditions: crude extract, xylose co-substrate varied, pH 7.0 triethanolamine, 30°C, varied: cofactor

| Kd [1] | Kd [2] | Kd [3] | Molecule | Km [4] | Km [5] |
| --- | --- | --- | --- | --- | --- |
| 25.9 ± 11.7 µM | 57.4 ± 34.9 µM | – | NC(=O)C1=CN([C@@H]2O[C@H](COP(=O)(O)OP(=O)(O)OC[C@H]3O[C@@H](n4cnc5c(N)ncnc54)[C@H](O)[C@@H]3O)[C@@H](O)[C@H]2O)C=CC1 [NADH] | – | – |
| 1.4 ± 1.2 µM | 22.9 ± 17.6 µM | 293 ± 169 µM | NC(=O)C1=CN([C@@H]2O[C@H](COP(=O)(O)OP(=O)(O)OC[C@H]3O[C@@H](n4cnc5c(N)ncnc54)[C@H](OP(=O)(O)O)[C@@H]3O)[C@@H](O)[C@H]2O)C=CC1 [NADPH] | – | – |
| – | – | – | P. stipitis XR (xylose reductase, XYL1) (Scheffersomyces stipitis CBS 6054) (protein, native full-length XYL1 from plasmid pY7, chromosomally integrated in S. cerevisiae TMB 3044 (gre3 deleted); crude cell extract) MPSIKLNSGYDMPAVGFGCWKVDVDTCSEQIYRAIKTGYRLFDGAEDYANEKLVGAGVKKAIDEGIVKREDLFLTSKLWNNYHHPDNVEKALNRTLSDLQVDYVDLFLIHFPVTFKFVPLEEKYPPGFYCGKGDNFDYEDVPILETWKALEKLVKAGKIRSIGVSNFPGALLLDLLRGATIKPSVLQVEHHPYLQQPRLIEFAQSRGIAVTAYSSFGPQSFVELNQGRALNTSPLFENETIKAIAAKHGKSPAQVLLRWSSQRGIAIIPKSNTVPRLLENKDVNSFDLDEQDFADIAKLDINLRFNDPWDWDKIPIFV | 28.7 ± 5.4 µM | 1.0 ± 0.6 µM |
| – | – | – | P. stipitis XR (xylose reductase, XYL1) (Scheffersomyces stipitis CBS 6054; K270M) (protein, native full-length XYL1 from plasmid pY7, chromosomally integrated in S. cerevisiae TMB 3044 (gre3 deleted); crude cell extract) MPSIKLNSGYDMPAVGFGCWKVDVDTCSEQIYRAIKTGYRLFDGAEDYANEKLVGAGVKKAIDEGIVKREDLFLTSKLWNNYHHPDNVEKALNRTLSDLQVDYVDLFLIHFPVTFKFVPLEEKYPPGFYCGKGDNFDYEDVPILETWKALEKLVKAGKIRSIGVSNFPGALLLDLLRGATIKPSVLQVEHHPYLQQPRLIEFAQSRGIAVTAYSSFGPQSFVELNQGRALNTSPLFENETIKAIAAKHGKSPAQVLLRWSSQRGIAIIPMSNTVPRLLENKDVNSFDLDEQDFADIAKLDINLRFNDPWDWDKIPIFV | – | 290 ± 78.6 µM |
| – | – | – | P. stipitis XR (xylose reductase, XYL1) (Scheffersomyces stipitis CBS 6054; K270R) (protein, native full-length XYL1 from plasmid pY7, chromosomally integrated in S. cerevisiae TMB 3044 (gre3 deleted); crude cell extract) MPSIKLNSGYDMPAVGFGCWKVDVDTCSEQIYRAIKTGYRLFDGAEDYANEKLVGAGVKKAIDEGIVKREDLFLTSKLWNNYHHPDNVEKALNRTLSDLQVDYVDLFLIHFPVTFKFVPLEEKYPPGFYCGKGDNFDYEDVPILETWKALEKLVKAGKIRSIGVSNFPGALLLDLLRGATIKPSVLQVEHHPYLQQPRLIEFAQSRGIAVTAYSSFGPQSFVELNQGRALNTSPLFENETIKAIAAKHGKSPAQVLLRWSSQRGIAIIPRSNTVPRLLENKDVNSFDLDEQDFADIAKLDINLRFNDPWDWDKIPIFV | 62.8 ± 18.7 µM | 25.8 ± 9.1 µM |
